Reference: ChEMBL document CHEMBL3301555, “MMV Malaria Box screening in pLDH viability assay against Plasmodium falciparum gametocytes”

test system: Plasmodium falciparum; assay: MMV: Measure of pLDH activity as indication of parasite viability. Gametocytogenesis of 3D7 Plasmodium falciparum strain was induced in vitro and asexual parasites were depleted with N-acetylglucosamine. Gametocytes were treated with dihydroartemisinin, epoxomicin, methylene blue, primaquine, puromycin or chloroquine in 96-well plates and the pLDH activity was evaluated using a modified Makler protocol. Mosquito infectivity was measured by the standard membrane feeding assay.; type: functional; set-up: concentration or dose not given beside the values

SMILES	Growth Inhibition [%]
COc1cccc(Cn2c(Oc3ccccc3)nc3c2c(=O)n(C)c(=O)n3C)c1	5.4442
c1ccc(/C2=N/c3ccccc3/N=C(/c3ccccc3)c3ccccc32)cc1	14.1312
CCOc1ccccc1CN1CCc2nc3cc(C(C)(C)C)nn3c(O)c2C1	8.4768
CCOC(=O)c1c(C)n(-c2ccccc2)c2ccc(OC(=O)c3cc(OC)c(OC)c(OC)c3)cc12	-1.486
Cc1cc(N2CCCC2)nc(Nc2ccc(NC(=O)CCc3ccccc3)cc2)n1	14.278
CN1CCN(c2ncnc3c2[nH]c2ccc(Cl)cc23)CC1	7.405
COc1ccc(C2c3ccc4ccccc4c3Oc3ncn(CCCn4ccnc4)c(=N)c32)cc1OC (stereo not drawn)	22.0606
CN(N=O)C1=C(NC2CCCCC2)C(=O)c2ccccc2C1=O	32.2
O=C1c2ccccc2-c2nnc(-c3ccc(Br)cc3)cc21	29.9528
CN(C)CCNc1cc(-c2ccccc2)nc2ccccc12	2.7026
CCOC(=O)C1=C(C)N=c2sc(=Cc3ccccc3O)c(=O)n2C1c1ccc(OC)c2ccccc12 (stereo not drawn)	6.5248
CCOC(=O)C1=C(C)N=c2sc(=Cc3cc(Cl)ccc3O)c(=O)n2C1c1ccc(OC)cc1 (stereo not drawn)	18.9955
Cc1nc2ccccc2c(O)c1CC=C(Cl)Cl	28.4855
FC(F)(F)c1cccc(Nc2nc3ccccc3nc2Nc2cccc(C(F)(F)F)c2)c1	23.1188
COc1ccc(CN2CCCC(C(=O)c3ccc(C(F)(F)F)cc3)C2)c(O)c1 (stereo not drawn)	43.708
COc1ccc2nc(C)cc(Nc3cccc(O)c3)c2c1.Cl	10.892
O=c1nc(C=Cc2ccc(Br)cc2)oc2ccccc12	11.7922
COc1ccc2nc(N)nc(C)c2c1	7.6614
CC(=O)c1ccc(NC(=O)CSc2nc(-c3ccccc3Cl)ns2)cc1	4.3696
O=C(NC1CCCCC1)C(c1cccs1)N(CCc1ccccc1)C(=O)c1ccco1 (stereo not drawn)	7.269
CC(Oc1ccc(NC(=O)c2cccs2)cc1)C(=O)c1ccc(Cl)cc1 (stereo not drawn)	16.818
CCC(=O)Nc1nnc(Cc2ccc(OC)c(OC)c2)s1	9.8854
Brc1ccc(Nc2nc3ccccc3nc2Nc2ccc(Br)cc2)cc1	6.7896
Cc1ccnc(NC(c2cccc(OCc3ccccc3)c2)c2ccc3cccnc3c2O)c1 (stereo not drawn)	-1.2034
Nc1ccc(-c2nc3cc(Cc4ccc5[nH]c(-c6ccc(N)cc6)nc5c4)ccc3[nH]2)cc1	9.5548

SMILES	Growth Inhibition [%]
COc1ccc(-c2cn3c(C(=O)Nc4ccccc4Cl)c(-c4ccccc4)c4c3n2CCCC4)cc1	1.628
CCCCOC(=O)c1ccc(Nc2cc(C)nc3ccc(OC)cc23)cc1	15.2218
Cc1cc(Nc2ccc(OCc3ccccc3)cc2)nc2cc(O)ccc12	36.4644
CCN(CC)CCNc1ccnc2cc3ccccc3cc12.O=P(O)(O)O	12.0652
N=c1c2ccccc2nnn1-c1cccc(C(F)(F)F)c1	20.848
COc1cc(-c2nc(-c3ccc(Sc4ccccc4)cc3)c(-c3ccccc3)[nH]2)cc(OC)c1O	10.5558
O=c1cc(NC2CCN(CCCc3ccccc3)CC2)c2cc(Cl)ccc2o1	18.578
Cc1ccc(OCCCCCCNCCO)c(C)c1	3.067
COc1cccc(C(=O)Nc2ccc(-c3nc4ccccc4[nH]3)cc2)c1	15.5734
OC(Cn1nnc2ccccc21)Cn1c2ccc(Br)cc2c2cc(Br)ccc21 (stereo not drawn)	11.39
CCOc1ccc(-n2cc(-c3ccccc3)c3c(SCc4cc(C)ccc4C)ncnc32)cc1	2.789
Cc1ccc(C)c(Cn2c(N3CCC(C(=O)NCc4cccs4)CC3)nc3ccccc32)c1	5.2598
Cc1ccccc1OCCSc1nc2ccc(NC(=O)c3cccs3)cc2s1	6.631
CC1CCN(Cc2c(O)ccc3cc(-c4nc5ccccc5s4)c(=O)oc23)CC1	9.8172
CCOc1cc2c(cc1OCC)C(c1cc(Cl)ccc1O)NCC2 (stereo not drawn)	24.0914
COc1ccc(C2C(C(=O)Nc3cccc(OC)c3)c3ccccc3C(=O)N2C2CCCCC2)cc1 (stereo not drawn)	-2.347
CCOC(=O)c1cnc2ccc(Cl)cc2c1NCCCN(C)C	5.776
CCOc1ccccc1NC(=O)CN1CCN(C(=O)c2ccco2)CC1	5.6622
c1ccc2c(NCCc3c[nH]c4ccccc34)c3ccccc3nc2c1	22.8248
O=C(Nc1ccc(C23CC4CC(CC(c5ccccc5)(C4)C2)C3)cc1)c1cccs1	4.2535
CCN(CC)CCCNc1ccnc2cc3ccccc3cc12	22.6902
O=C1c2ccccc2C2=Nc3ccccc3SC(c3cccc(F)c3)C12 (stereo not drawn)	29.827
Cc1ccccc1OCCSc1nc2ccc(NC(=O)c3ccccc3)cc2s1	-3.751
CCOC(=O)c1cnc2c(C)cccc2c1Nc1ccc(C(C)=O)cc1	14.9964
O=C(Nc1ccc(-c2nc3cc4ccccc4cc3[nH]2)cc1)c1cccc(Br)c1	12.54

SMILES	Growth Inhibition [%]
Cc1ccc(-c2nc3ccccc3o2)cc1NCc1cc(Cc2ccccc2)ccc1O	21.1902
Cc1ccc(C2CC(C(F)(F)F)n3nc(C(=O)N4CCN(C(c5ccccc5)c5ccccc5)CC4)cc3N2)cc1 (stereo not drawn)	4.7565
Cc1ccc2nc(C)cc(Nc3cccc(C(F)(F)F)c3)c2c1.Cl	-5.193
CC(C)(C)c1ccc(C(=O)Nc2c3c(nn2-c2cccc(Cl)c2)CSC3)cc1	9.0986
CCOc1cc2c(cc1OCC)C(c1cc(Cl)c(O)c(OCC)c1)NCC2 (stereo not drawn)	16.0386
COc1ccc(N2CCN(C(CNC(=O)CC(C)(C)C)c3ccc4c(c3)OCO4)CC2)cc1 (stereo not drawn)	14.9208
COc1ccc(C(O)(CCC(C)C)C(CN2CCOCC2)c2ccc(Cl)cc2)cc1.Cl (stereo not drawn)	9.238
CCCCCCn1c(=N)n(CC(O)COc2cccc(C)c2)c2ccccc21.Cl (stereo not drawn)	34.1668
O=C(O)C(=O)O.Oc1ccc(Br)cc1CN1CCN(Cc2cccc(F)c2)CC1	29.456
COc1ccc(-c2cc(=O)oc3c4c(ccc23)OCN(Cc2ccc(F)cc2)C4)cc1	25.9468
CCOC(=O)C1(Cc2ccccc2)CCN(Cc2cccc(OC)c2O)CC1	37.59
O=C(Cc1ccccc1)NC(c1ccc(Cl)cc1)c1c(O)ccc2ccccc12 (stereo not drawn)	13.3694
Oc1ccc(C(=C(Cl)Cl)c2ccc(O)cc2)cc1	9.2564
CCOc1ccc2c(c1)CN(Cc1ccc(Cl)cc1)CO2	25.403
CC(C)(C)c1ccc2c(c1)CN(Cc1ccc(Cl)cc1)CO2	36.3995
CCCCC(O)(c1ccc(Cl)cc1)C(CN1CCOCC1)c1ccc(Cl)cc1.Cl (stereo not drawn)	3.244
c1ccc(CNc2nc(Nc3ccccc3)nc3ccccc23)cc1	12.3006
CN(C)c1ccc(N2C(N)=NC(N)=NC2(C)C)cc1	5.041
COc1ccc(OC)c(C2C3=C(CC(C)(C)CC3=O)N(c3ccc(Cl)c(Cl)c3)C3=C2C(=O)CC(C)(C)C3)c1	21.894
COc1ccc(C(=O)NC(c2ccccc2Cl)c2cc(Cl)c3cccnc3c2O)cc1 (stereo not drawn)	27.7302
Cc1cccc(N2C(=O)C3C(C2=O)C2(c4ccccc4)C(=O)C3(c3ccccc3)C(c3ccc4c(c3)OCO4)=C2c2ccc3c(c2)OCO3)c1 (stereo not drawn)	6.488
Cc1cc(=O)oc2c1ccc1oc(C(=O)c3ccccc3)c(C)c12	19.4
COc1ccc(CN2CCN(Cc3ccccc3)CC2)c(O)c1	26.2585
COc1ccc2c(c1OC)C(=O)N1c3ccccc3N=C(c3ccc(C)cc3)CC21 (stereo not drawn)	14.488
CCCCCCc1cc(O)c2c3c(c(=O)oc2c1)CCC(C)C3 (stereo not drawn)	26.585

SMILES	Growth Inhibition [%]
Cl.OC(CNCc1ccccc1)Cn1c2ccccc2c2ccccc21 (stereo not drawn)	33.103
COc1ccc(CCNC(=O)c2cc(S(=O)(=O)N3CC(C)CC(C)C3)ccc2Sc2ccc(F)cc2)cc1OC (stereo not drawn)	10.1532
Cc1ccc(F)cc1NC(=O)c1cc(Cl)ccc1Nc1ccccc1	10.2234
CCOc1ccc(Nc2c3ccccc3nc3ccccc23)cc1.Cl	2.291
OC1CCCCC1C1(NC(=S)Nc2ccccc2)CCCCC1 (stereo not drawn)	-6.2185
OC1=C2C(=Nc3ccccc3SC2c2ccc(Br)cc2)c2ccccc21 (stereo not drawn)	30.3526
COc1ccc(C)c2sc(N(Cc3cccnc3)C(=O)c3ccc(C#N)cc3)nc12	-12.2204
Clc1ccc2c(N3CCCC3)ccnc2c1	18.4524
CCCCCCc1cc2cc(-c3nc4ccccc4[nH]3)c(=Nc3ccccc3C)oc2cc1O	18.3094
CCCCCCC(O)(c1ccc(F)cc1)C(CN1CCOCC1)c1ccccc1.Cl (stereo not drawn)	-0.4664
COc1cc(OC)cc(N2C(=O)N(Cc3ccc(C(C)(C)C)cc3)c3ccccc3S2(=O)=O)c1	5.995
CCOc1c(Br)cc(C2C(C(=O)OC)=CN(C)C=C2C(=O)OC)cc1OC	11.9416
COc1ccc(C(=O)C2CC2c2ccc(Cl)cc2)cc1 (stereo not drawn)	8.002
CCCCCn1c(=N)n(CC(O)COc2cccc(C)c2)c2ccccc21.Cl (stereo not drawn)	34.3056
O=c1c2c([nH]c3ccccc13)CCCC2	19.1396
COc1ccc2sc(N(Cc3cccnc3)C(=O)c3ccc(C#N)cc3)nc2c1	-6.4226
COc1ccccc1N1C(=N)SC(=Cc2ccc(OCc3ccccc3F)cc2)C1=O	14.0558
CCN1CCN(c2c(C(=O)c3ccccc3)cnc3cc(OC)c(OC)cc23)CC1	-1.335
Cc1c(C)n(CC(O)CNC2CCCCC2C)c2ccccc12 (stereo not drawn)	42.7668
Cc1ccc(S(=O)(=O)c2c(COC(=O)c3cccc(C)c3)c(-c3ccccc3)nn2C)cc1	4.058
CCOC(=O)c1c[nH]c2c(CC)cccc2c1=O	3.164
CCCCc1c(CCC)c(=N)c2ccccc2n1C.I	1.3375
CCCCN(CCCC)S(=O)(=O)c1ccc(NC(=O)c2ccco2)cc1	9.666
